Assay results: patent US11517617B2, “Methods and compositions for preventing influenza infection” (THE UNIVERSITY OF MELBOURNE, priority 2017, dated 2022)

Tested on: memory CD8^+ T cells within PBMCs
Type: cell-based, human

| Sequence | cross-reactivity of CD8^+ T cells after in vitro expansion with the peptide | recognition of IBV-derived variant by IAV-expanded CD8^+ T cells |
| --- | --- | --- |
| FEDLRVLSA (Influenza A virus) [NP338-345] | recognizing both IAV- and IBV-derived peptides |  |
| YEDLRVLSA (Influenza B virus) [BNP394-401] | could not expand CD8^+ T cells | to a lesser extent |
